# US10653658B2, “Biofilm inhibiting compositions enhancing weight gain in livestock” (Akeso Biomedical, Inc., priority 2015, dated 2020)
# What was measured:
# Salmonella = Salmonella cfu/g of caeca at day 42 (Example 10); format: in vivo; settings: in feed
# Protocol: (§1) A study was performed to evaluate growth promotion and reduction of Campylobacter carriage using FeTyr in Ross 308 male broilers with 7 treatment groups. Each treatment group comprised eight replicates of 10 birds per pen (80 birds/treatment group), with 2 control groups and […]. All the test groups and both of the control groups were exposed at day 20 of the trial to dirty litter, which tested positive for Campylobacter. This method was used to provide a more natural method to Campylobacter challenge the birds. Thus there were two positive controls where each treatment group was challenged with Campylobacter, and five treatment groups that were all challenged with Campylobacter. The total number of birds used in the 7 treatment groups was 560.
# (§2) At day 20, litter, which was naturally Campylobacter-contaminated, was tested to confirm the presence of Campylobacter, and then added (approximately 2 kg/pen) to the litter in all pens. At day 42, caecal samples were taken and tested for Campylobacter, E. coli and Salmonella enumeration.
# Campylobacter [1] = test: Campylobacter cfu/g of caeca at day 42 (Example 10); format: in vivo; settings: in feed
# Protocol: as §1, §2
# Campylobacter [2] = test: Campylobacter carriage in chickens, cfu/g of droppings and caeca at day 42 (Example 1); format: in vivo
# Protocol: (§3) A study was performed to evaluate growth promotion and reduction of Campylobacter carriage using FeQ and FeTyr in Ross 308 male broilers with 7 treatment groups. Each treatment group comprised four replicates of 10 birds per pen (40 birds/treatment group and 4 pens of 10 birds/treatment group), with 2 control groups and 5 test groups. All the test groups and one of the control groups were exposed at day 20 of the trial to dirty litter, which tested positive for Campylobacter. This method was used to provide a more natural method to Campylobacter challenge the birds. Thus there was a positive control where one treatment group was challenged with Campylobacter and one negative control group where the birds were not challenged, and five treatment groups that were all challenged with Campylobacter. The total number of birds used in the 7 treatment groups was 280. Treatment group 1 was a negative control where birds just received the commercial feed, and were not challenged with dirty litter containing Campylobacter. Treatment group 2 was the positive control where the birds received the commercial feed, and were challenged with dirty litter containing Campylobacter at day 20. Treatment group 3 received 0.22 g/L of FeQ in their drinking water and 0.22 g/Kg FeQ in their feed during the entire trial, and was challenged with dirty litter containing Campylobacter at day 20. Treatment group 5 received 0.22 g/L of FeQ in their drinking water during the entire trial, and was challenged with dirty litter containing Campylobacter at day 20. Treatment group 6 received 0.22 g/kg FeQ in their feed during the entire trial, and was challenged with dirty litter containing Campylobacter at day 20. Treatment group 7 received 0.022 g/L FeQ in their drinking water during the entire trial, and was challenged with dirty litter containing Campylobacter at day 20. Treatment group 8 received 0.02 g/L FeTyr in their drinking water during the entire trial, and was challenged with dirty litter containing Campylobacter at day 20. The FeTyr was pre-dissolved in DMSO, and diluted to provide a solution of 0.02 g/L of FeTyr in water. (An additional treatment group 4 was terminated due to solubility issues.)
# (§4) Prior to challenging the chickens with dirty litter containing Campylobacter at day 20, each pen was tested for Campylobacter using cloacal swabs. All pens tested negative for Campylobacter prior to the challenge. At day 20, litter, which was naturally Campylobacter-contaminated, was tested to confirm the presence of Campylobacter, and then added (approximately 2 kg/pen) to the litter in all pens except in pens for treatment group 1 (the negative control). At day 28, the pen litter was sampled to confirm the presence or absence of Campylobacter. At day 41 and 42, caecal samples were taken from 3 birds per pen (12 birds per treatment group) and tested for Campylobacter enumeration. At day 42, digesta, fecal samples, and caecal content was taken from all birds, and pooled per pen. Two birds per pen were also taken from treatment groups 1-3, euthanized, and blood samples taken. Samples were analyzed for blood chemistry, including analysis for alkaline phosphatase, aspartate amino transferase, alanine amino transferase, gamma-glutamyl transferase, lactate dehydrogenase, total protein, albumin, globulin, amylase and glucose.
# [3] = Growth performance of broilers given FeQ or FeTyr in water/feed, dirty litter Campylobacter challenge at day 20 (Example 1); format: in vivo, Ross 308 male broilers
# Protocol: as §3
# The birds were fed with a commercial three-phase feeding program using starter, grower and finisher feeds with formulations shown in Table 2. All diets had coccidiostat (MAXIBAN® at 0.0625% in starter and […] and MONTEBAN® at 0.06% in finisher phase). Xylanase (RONOZYME® WX at 200 g per ton) and phytase (RONOZYME® P at 150 grams per ton) were added to all diets.
# The feeding program is show in Table 3. The birds were reared in floor pens to day 42, and fed starter, grower and finisher feed at day 0 to 11, 11 to 24, and 24 to 42 days, respectively. All birds were weighed individually and feed weigh backs recorded per pen at day 0, 11, 21, 24 and 42 days.
# as §4, with “Samples were analyzed for blood chemistry, including analysis for alkaline phosphatase, aspartate amino transferase, alanine amino transferase, gamma-glutamyl transferase, lactate dehydrogenase, total protein, albumin, globulin, amylase and glucose.” left out
# E. coli = E. coli cfu/g of caeca at day 42 (Example 10); format: in vivo
# Protocol: as §1, §2
# [4] = Dose ranging study of FeTyr (TYPLEX) in feed, zootechnical performance of broilers, dirty litter challenge at day 20 (Example 10); format: in vivo, Ross 308 male broilers; settings: all treatment groups, in feed
# Protocol: as §1
# Treatment group 1 was a positive control where birds just received the commercial feed, and were challenged with dirty litter containing Campylobacter at day 20. Treatment group 2 received 0.01 g/kg of TYPLEX (FeTyr) in their feed, and were challenged with dirty litter containing Campylobacter at day 20. Treatment group 3 received 0.02 g/kg of TYPLEX (FeTyr) in their feed, and was challenged with dirty litter containing Campylobacter at day 20. Treatment group 4 received 0.05 g/kg of TYPLEX (FeTyr) in their feed, and was challenged with dirty litter containing Campylobacter at day 20. Treatment group 5 received 0.1 g/kg of TYPLEX (FeTyr) in their feed, and was challenged with dirty litter containing Campylobacter at day 20. Treatment group 6 received 0.2 g/kg of TYPLEX (FeTyr) in their feed, and was challenged with dirty litter containing Campylobacter at day 20. […] The birds were fed with a commercial three-phase feeding program using starter, grower and finisher feeds as described in Example 1. The birds were reared in floor pens to day 42, and fed starter, grower and finisher feed at day 0 to 11, 11 to 24, and 24 to 42 days, respectively. All birds were weighed individually and feed weigh backs recorded per pen at day 0, 11, 21, 24 and 42 days.
# as §2
# In order to minimize risk of cross-contamination, standard industry biosecurity measures were used including: disinfecting boots, changing overshoes and gloves between pens/treatments, entering Campylobacter negative pens before entering Campylobacter positive pens, and leaving adjacent pens empty. Daily health, culls, and mortality were recorded. All bird weights were recorded at 0, 11, 21, 24, 33 and 42 days. Weight gains, feed intake and feed conversion ratio (FCR) were derived for each feeding period.
compound,measurement,setting,value
"N[C@@H](Cc1ccc(O)cc1)C(=O)O.[Fe+3] [FeTyr, ferric tyrosine]",Salmonella cfu/g of caeca at day 42 (FIG. 15),Salmonella,positive effect on reducing Campylobacter infection
same,Campylobacter cfu/g of caeca at day 42 (FIG. 14),Campylobacter [1],positive effect on reducing Campylobacter infection
same,Campylobacter cfu/g of caeca samples at day 42 compared with positive control (FIG. 4),Campylobacter [2]; treatment groups 3 and 5-8,positive effect on reducing Campylobacter infection
same,Campylobacter cfu/g of bird droppings at day 42 compared with positive control (FIG. 3),Campylobacter [2]; treatment groups 3 and 6-8,positive effect on reducing Campylobacter infection
same,"effect on growth performance in the absence of Campylobacter challenge, first 20 days",[3]; compared with control groups 1 and 2,positive effect
same,effect on MFCR at day 42 compared with positive control (FIG. 2),"[3]; treatment groups 3, 5, 6, 7 and 8, challenged with dirty litter",positive effect on MFCR
same,effect on growth: average body weight at day 42 compared with positive control (FIG. 1),"[3]; treatment groups 3, 5, 6, 7 and 8, challenged with dirty litter containing Campylobacter",positive effect on growth
same,E. coli cfu/g of caeca at day 42 (FIG. 16),E. coli; in feed,positive effect on reducing Campylobacter infection
same,levels of E. coli in poultry upon treatment,E. coli; poultry data,lower levels of E. coli
same,MFCR at day 42 compared to control group (FIG. 13),[4],improved MFCR values
same,average body weight at day 42 compared with control group (FIG. 12),[4],higher average body weight
